Source: patent publication US5882851A, “Cytochrome P-450 monooxygenases” (Novartis Finance Corporation, priority 1993, dated 1999)
Values after ≈ are worked out from the molar mass of the structure shown. Like-named read-outs stand apart in the source and are kept apart here.

Experiments:
[1] = system: N[C@@H](Cc1ccc(O)cc1)C(=O)O; experiment: Reconstitution of cytochrome P-450TYR activity in DLPC micelles; format: biochemical, Sorghum bicolor; settings: pH 7.9, 30.0 °C
Description: Reconstitution of the enzyme activity of a microsomal P-450 enzyme is accomplished by insertion of the cytochrome P-450 enzyme and the corresponding NADPH-cytochrome P-450 oxidoreductase into appropriate lipid micelles made from different commercially available lipids. Isolation of NADPH-cytochrome P-450 oxidoreductase is done according to Halkier and Moller, Plant Physiol. 96:10-17, 1990. A mixture of lipids can be used but with cytochrome P-450TYR di-lauroyl-phosphatidyl choline (DLPC) provides the best enzymatic activity. One rate limiting factor of this rate limiting reaction is the number of correctly formed complexes of cytochrome P-450TYR and NADPH-cytochrome P-450 oxidoreductase. Excess amounts of the oxidoreductase and concentrated enzyme solutions ensure a sufficient number of active complexes.
A reconstituted enzyme is obtained using the following components:
Cytochrome P-450TYR : 100 μg/ml in 50 mM potassium phosphate buffer pH 7,9
Oxidoreductase, purified from Sorghum bicolor: 100 μg/ml in 50 mM potassium phosphate buffer pH 7,9
Lipid: 10 mg/ml di-lauroyl-phosphatidyl choline, sonicated in 50 mM potassium phosphate buffer pH 7,9
^14 C-tyrosine: commercially available from Amersham; [U-^14 C]-L-tyrosine 0.5 μCi
10 μl of the lipid suspension is mixed in a glass vial with 50 μl of the cytochrome P-450TYR (0-1.5 pmol) solution. 50 μl of the oxidoreductase (0-0.15 U) solution is added and then 10 μl tyrosine solution and 10 μl NADPH solution are added and the mixture is sonicated in a Branson 5200 sonication bath for one minute. The reaction mixture is subsequently incubated for 1 hour at 30° C. At the end of the incubation period the reaction is stopped by transferring the glass vials onto ice. Radioactively labelled intermediates formed are extracted into 50 μl ehtyl acetate, applied to a silica coated TLC plate and developed using an ethyl acetate/toluene (1:5 v/v) mixture as mobile phase. The resultant product, p-hydroxyphenylacetaldehyde oxime is visualized by autoradiography of the TLC plate. Alternatively, the intermediates are analyzed by reverse-phase HPLC coupled to a Berthold radioactiviy monitor. The HPLC separation was carried out using a nucleosil 100-10C18 column isocratically eluted with 1,5% 2-propanol in 25 mM Hepes pH 7,9 (Halkier et al, J. Biol. Chem. 264:19487-19494, 1989). Control samples may be made by omitting either cytochrome P-450 oxidoreductase or NADPH.

[2] = biological target: T1, P-450TYR expressed in E. coli (Sorghum bicolor, UniProt Q43135); experiment: Substrate binding spectra of P-450TYR expressed in E. coli
T1 construct: in which the 35 N-terminal amino acids are replaced by the nine N-terminal amino acids from bovine 17α hydroxylase; nine N-terminal amino acids from bovine 17alpha-hydroxylase (replace the 35 N-terminal residues) (N); made in house; host or cells: E. coli JM109, vector pSP19g10L
T1 sequence (Q43135 other isoform, or with tags, fused parts or gaps): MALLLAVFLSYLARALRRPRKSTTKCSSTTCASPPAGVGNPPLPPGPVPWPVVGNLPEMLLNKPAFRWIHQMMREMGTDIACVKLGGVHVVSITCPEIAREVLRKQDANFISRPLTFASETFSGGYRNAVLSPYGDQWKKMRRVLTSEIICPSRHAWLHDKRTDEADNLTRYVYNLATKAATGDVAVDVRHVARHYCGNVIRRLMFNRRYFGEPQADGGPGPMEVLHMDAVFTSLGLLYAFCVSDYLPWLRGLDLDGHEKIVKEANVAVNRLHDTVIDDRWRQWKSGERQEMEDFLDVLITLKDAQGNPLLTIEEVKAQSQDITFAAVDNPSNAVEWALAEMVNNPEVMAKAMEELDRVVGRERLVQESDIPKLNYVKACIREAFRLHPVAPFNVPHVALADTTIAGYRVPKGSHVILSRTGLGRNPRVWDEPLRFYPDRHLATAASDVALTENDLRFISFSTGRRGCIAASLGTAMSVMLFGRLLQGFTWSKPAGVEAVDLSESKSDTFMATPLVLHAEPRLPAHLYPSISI
Description: (§1) Cytochrome P-450TYR in the oxidized state has a strong absorption peak at 420 nm, representing the low spin state of the iron of the heme group. The binding of a ligand to the heme group shifts the absorption maximum by changing the spin state of the iron. Binding of tyrosine at the catalytic site of cytochrome P-450TYR induces a change of the spin state of the oxidized iron from low to high spin, and thereby changes the absorption maximum from 420 nm to 390 nm producing a type I spectrum (Jefcoate, Methods in Enzymology 52:258-279, 1978). The following experimental procedure is used to obtain the substrate binding spectrum: two identical cuvettes containing a buffered solution of the isolated cytochrome P-450 are prepared. The substrate of the enzyme is added to the sample cuvette whereas the same volume of buffer is added to the other cuvette. The difference spectrum is then recorded in an SLM-Aminco DW2c spectrophotometer. The absorption difference, A390-420, is proportional to the concentration of cytochrome P-450TYR with a bound substrate at its active site. If a saturating concentration of substrate is added to the sample cuvette, the absorption difference is proportional to the concentration of the substrate specific cytochrome P-450 in the cuvettes. The saturating concentration of the substrate is determined by titrating the cytochrome P-450 sample with increasing amounts of substrate and monitoring A390-420.
A modified cytocrome P-450TYR, in which the 35 N-terminal amino acids are replaced by the nine N-terminal amino acids from bovine 17α hydroxylase is introduced into the expression vector pSP19g10L which can be obtained from Dr. Henry Barnes (La Jolla, Calif.). This plasmid contains the lac Z promoter fused with the known short leader sequence (g10L) of gene 10 from bacteriophage T7 (Olin et al, 1988). A construct containing the N-terminal amino acids from bovine 17α hydroxylase and a truncated form of the P-450TYR gene is designed using PCR mutagenesis: Oligonucleotide TYROL 1d (5'-CGGGATCCATATGGCTCTGTTATTAGCAGTTTTTCTGTCGTACCTGGCCCG-3'; SEQ ID NO 23) containing a 5' mutant cDNA sequence as well as a BamHI and NdeI restriction site is used together with oligonucleotide TYROL 3 comprising the sequence surrounding the unique BamHI restriction site downstream of the ATG start codon of the cDNA coding for P-450TYR to amplify a modified N-terminal sequence of P-450TYR. The amplification product is cut with NdeI and BamHI restriction enzymes. To introduce a HindIII site immediately downstream of the stop codon of the P-450TYR gene, oligonucleotides TYROL 2 and TYROL 4 are used in a polymerase chain reaction to obtain a C-terminal fragment of the P-450TYR gene comprising a HindIII restriction site immediately downstream of the stop codon. The amplification product is cut with PstI and HindIII restriction enzymes. The complete expression plasmid is constructed by simultaneous ligation of the N-terminal NdeI/BamHI fragment, the BamHI/PstI fragment of the P-450TYR gene and the C-terminal PstI/HindIII fragment into NdeI/HindIII cleaved pSP19g10L vector DNA. The expression vector obtained is transformed into E. coli strain JM109. Transformed E. coli produce 300 nmol to 500 nmol cytochrome P-450TYR per liter cell culture upon growth at 28° C. in the presence of 1 mM isopropyl-β-D-thiogalactopyranoside and at 125 rpm. Expression levels as high as 900 nmol per liter, equivalent to 55 mg P-450TYR per liter, have been obtained. […]

[3] = system: Western Corn Root Worm (WCRW); experiment: Larval mortality of Western Corn Root Worm on diet; format: in vivo, Diabrotica virgifera virgifera
Description: Insects or insect larvae are fed on a diet containing added cyanogenic glycoside, a diet containing added cyanogenic glycoside, and callus, or a diet supplemented with the supernatant of callus ground-up in the presence of the cyanogenic glycoside. Mortality is compared to the mortality of insects or insect larvae fed on the diet only.
WCRW larvae are fed on a diet with added amygdalin, a diet with added amygdalin and Black Mexican Sweet (BMS) callus or on a diet supplemented with the supernatant of BMS-callus ground-up in the presence of amygdalin. Larval mortality is compared to the mortality of larvae fed on the diet only.
The activity of dhurrin on larval mortality of WCRW was determined as described for amygdalin in example 12.

[4] = system: biosynthesis of glucosinolates; experiment: In vivo effect of cytochrome P450 inhibitors on glucosinolate in etiolated tropaeolum seedlings; settings: 1 mM inhibitor; for effect on glucosinolate: radioactively labelled phenylalanine, etiolated tropaeolum seedlings
[5] = system: glucosinolate production; experiment: Induction of glucosinolate production in Tropaeolum majus; format: in vivo
Procedure: Seeds of Tropaeolum majus L. cv Empress of India (Dansk Havefroforsyning, Kolding, DK) are allowed to imbibe and germinate in complete darkness for one week at 25° C. In vivo biosynthesis experiments are performed wherein 1 μCi of the tracer ^14 C-labelled phenylalanine is administered to excised dark-grown seedlings for 24 hours followed by boiling of the plant material in 90% methanol and analysis of the extracts by HPLC as described by Lykkesfeldt and Moller, 1993. Prior to administration of the tracer to the excised seedling or leaf, the intact plant is subjected to a potential inducer for 24 hours.

[6] = biological target: T2, cytochrome P-450TYR (Sorghum bicolor, UniProt Q43135); experiment: Substrate binding spectra of isolated sorghum cytochrome P-450TYR (difference spectrum A390-420)
T2 construct: from tissue; host or cells: microsomes of etiolated Sorghum bicolor seedlings, solubilised and purified by dye columns
T2 sequence (Q43135 1-558): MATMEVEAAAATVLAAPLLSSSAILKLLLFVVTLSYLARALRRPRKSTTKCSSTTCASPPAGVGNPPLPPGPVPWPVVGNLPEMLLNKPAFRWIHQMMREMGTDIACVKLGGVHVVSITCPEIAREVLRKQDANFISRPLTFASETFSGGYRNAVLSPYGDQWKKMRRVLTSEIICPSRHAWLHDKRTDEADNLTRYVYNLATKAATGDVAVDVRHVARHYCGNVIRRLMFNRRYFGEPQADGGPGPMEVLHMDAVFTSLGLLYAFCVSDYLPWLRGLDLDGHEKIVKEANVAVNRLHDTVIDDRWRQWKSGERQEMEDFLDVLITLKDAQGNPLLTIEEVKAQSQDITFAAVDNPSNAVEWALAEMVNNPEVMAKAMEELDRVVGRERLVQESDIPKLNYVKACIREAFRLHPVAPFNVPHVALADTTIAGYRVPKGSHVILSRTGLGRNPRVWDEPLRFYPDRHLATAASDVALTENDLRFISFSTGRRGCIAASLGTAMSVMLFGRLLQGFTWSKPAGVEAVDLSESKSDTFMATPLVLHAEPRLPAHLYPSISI
Procedure: Cytochrome P-450 substrate binding spectra are recorded with stepwise increased substrate concentration until saturating conditions are reached.
as §1, with “Binding of tyrosine at the catalytic site of cytochrome P-450TYR induces a change of the spin state of the oxidized iron from low to high spin, and thereby changes the absorption maximum from 420 nm to 390 nm producing a type I spectrum (Jefcoate, Methods in Enzymology 52:258-279, 1978).” left out
If a cytochrome P-450 sample can be saturated with two different substrates, there may be two different cytochrome P-450 enzymes in the sample, or there may be one cytochrome P-450 enzyme able to bind to both substrates. To discriminate between these possibilities, saturating amounts of the two substrates are added sequentially and the A390-420absorption change is monitored. If, independent of the order of addition, the addition of the second sample gives rise to an increased A390-420value compared to the value after the addition of the first substrate, the two substrates are bound by different enzymes. If A390-420 remains unchanged upon addition of the second substrate, independent of the order of addition, both substrates bind to the same active site, i.e. to the same cytochrome P-450 enzyme.

**Q.** Which results are given for cytochrome P-450TYR (Sorghum bicolor)?
**A.** Km ([1]; other: in the absence of added salt): 210 µM; Km ([1]; other: in the presence of 15 mM NaCl): 140 µM

**Q.** For `ON=CCc1ccc(O)cc1` [p-hydroxyphenylacetaldehyde oxime], which “type of substrate binding spectrum” value [2] is on record?
**A.** The value was “type Ispectrum”.

**Q.** Which results are given for `N#C[C@@H](O[C@@H]1O[C@H](CO)[C@@H](O)[C@H](O)[C@H]1O)c1ccc(O)cc1` [dhurrin]?
**A.** LC50 [3]: 368 µg/mL (≈ 1180 µM); 95% confidence limits of LC50 ([3]; WCRW larvae): 0.28 to 0.48 µg/mL; slope of the regression line ([3]; WCRW larvae): 2.5

**Q.** Which effect on glucosinolate [4] does the source give for `Clc1ccc(N2N=NC3C4CC(C5N=NC45)C32)cc1` (centres unmarked) [tetcyclacis] here?
**A.** The effect on glucosinolate was “reduction of glucosinolate”.

**Q.** With `CCO` [ethanol] as the compound, how does the “increase in glucosinolate production as compared to control experiments with water” value ([5]; 10 mM phenylalanine or 2% ethanol administered to the vermiculate, 24 hours, etiolated seedlings) read?
**A.** Its value is “threefold increase”.

**Q.** `O=C(O)[C@H](Cc1ccc(O)cc1)NO` [N-hydroxytyrosine] was tested. Which “initial A390-420” value ([6]; 50 μl 20 mM N-hydroxytyrosine) did it give?
**A.** Its value is 0,0689.

**Q.** What about the “resulting A390-420” value ([6]; 50 μl 20 mM N-hydroxytyrosine, dilution factor 550/500) of the same compound?
**A.** The value was 0,0758.

**Q.** What about the “initial A390-420” value ([6]; 120 μl 5 mM N-hydroxytyrosine) of the same compound?
**A.** The value was 0,0919.

**Q.** And the “resulting A390-420” value ([6]; 120 μl 5 mM N-hydroxytyrosine, dilution factor 620/500)?
**A.** The value was 0,1140.

**Q.** What about the “initial A390-420” value ([6]; 140 μl 5 mM N-hydroxytyrosine) of the same compound?
**A.** The value was 0,0911.

**Q.** And the “resulting A390-420” value ([6]; 140 μl 5 mM N-hydroxytyrosine, dilution factor 640/500)?
**A.** Its value is 0,1166.

**Q.** What about the “type of substrate binding spectrum” value ([6]; isolated sorghum P-450TYR) of the same compound?
**A.** Its value is “type I binding spectrum”.

**Q.** And the “molar extinction coefficient E420-390” value [2]?
**A.** The value was 64.6 cm⁻¹ mM⁻¹.

**Q.** How did the “type of substrate binding spectrum” value [2] turn out when `N#CCc1ccc(O)cc1` [p-hydroxyphenylacetonitrile] was run?
**A.** Its value is “type Ispectrum”.

**Q.** Which results are given for `N#C[C@H](O[C@@H]1O[C@H](CO[C@@H]2O[C@H](CO)[C@@H](O)[C@H](O)[C@H]2O)[C@@H](O)[C@H](O)[C@H]1O)c1ccccc1` [amygdalin]?
**A.** lethality ([3]; WCRW larvae, 2 mg/ml, in the absence of BMS-callus): lethal; lethality ([3]; WCRW larvae, concentrations of less than 1 mg/ml, BMS-callus absent): significantly less lethality; LC50 ([3]; WCRW larvae, in the presence of BMS-callus, read-out: LC50): ~1000 µg/mL

**Q.** What does the source list for enilketoconazol?
**A.** effect on uptake of phenylalanine ([4]; measured by ethanol extraction of the plant material): without causing a reduction in the uptake of phenylalanine; effect on glucosinolate [4]: reduction of glucosinolate

**Q.** For `CC/C=C\C[C@H]1C(=O)CC[C@@H]1CC(=O)O` [jasmonic acid], which “induction of glucosinolate production” value ([5]; spraying with 100 μM, incubation 24 hours, etiolated seedlings and green leaves) is on record?
**A.** The value was “fivefold induction”.
